# Assay results taken from patent US5264423A, “Inhibitors for replication of retroviruses and for the expression of oncogene products” (The United States of America as represented by the …, priority 1992, dated 1993).
# Entries after “also recorded” stand apart in the source; their conditions may differ.
# Legend:
# endonuclease S1 = assay: Nuclease susceptibility, S1 nuclease; type: in vitro ADME
# Description: (§1) Several oligodeoxynucleotides were studied with regard to DNase sensitivity, cf. Table 5. These include cytidine homopolymers, ODN-4 (an anti-message 28-mer complementary to the 3' region of the art/trs region of HIV BH10 clone), and myc-1 (a 15-mer complementary to the initiation codon region of the C-myc oncogene). The DNases employed were predominantly endonuclease S1, the exo- and endonuclease P1, and snake venom (SV) phosphodiesterase. The concentration of S1 nuclease was ten-fold higher (100 micromoles/ml) for reactions of oligo-dc, since both the normal and PS analog were degraded extremely slowly be this enzyme. S1 and P1 nuclease digestion proceeded at 2-45 times more slowly for the S-ODNs than for the normal oligomers, with the […] being somewhat more readily digested than the 28-mer.
# [1] = test system: snake venom (SV) phosphodiesterase; assay: Nuclease susceptibility, snake venom phosphodiesterase; type: in vitro ADME
# Description: as §1
# Solubility = type: physicochemical; conditions: acetate salts
# Description: The phosphorothioate oligodeoxynucleotides of the present invention have suitable chemical characteristics, namely, the ability to hybridize with complementary DNA/MRNA under physiological conditions, and better solubility properties relative to methylphosphonates. Moreover, the thioesters are as soluble in biological media as the parent compounds.
# Oligodeoxynucleotides with blocks of phosphorothioates at the 3' or 5' ends were synthesized by automatically changing the oxidation cycle at the required point. […] Introduction of a small amount of ammonia vapor, not aqueous ammonia, by a Pasteur PiPette solubilized all the solids. The yield determined from absorbance at lambda max was about 30%.
# [2] = test system: T4 molecule in T4 cells (H9 cells); assay: Specific binding of radiolabelled HIV to T4 molecule
# Description: (§2) The possibility that the S-ODN analogs may interfere with HIV binding to target cells was tested.
# [3] = test system: de novo HIV DNA synthesis in ATH8 cells; assay: Southern blot of de novo HIV DNA synthesis; type: cell-based; conditions: days 4 and 7
# Description: Target cells (1×10^7 ATH8 cells) were pretreated with or without S-dC28 at various concentrations for sixteen hours, then treated with Polynrene, exposed to HIV (500 virus particles per cell), resuspended, and cultured in the presence or absence of S-dC28. On days 4 and 7 following the exposure to the virus, high molecular weight DNA was extracted, digested with Asp718 (a Kpn I isoschizomer from Boehringer-tiannheim, Indianapolis, IN), and subjected to Southern blot analysis hybridized with a labelled insert of molecular clone of the env region of HTLV-III (BH10) containing a 1.3 Kb Bgl II fragment.
# FIGS. 6A-6D show the inhibitor effect of the phosphorothioate oligodeoxycytidine analog (S-dC28) on de novo HIV DNA synthesis in target cells. On days 4 and 7 following the exposure to the virus, a substantial amount of viral DNA was detected by Southern blot analysis without antiviral agents.
# On day 4, shown in lanes A-E, and day 7, shown in lanes F-J, following exposure to the virus, high molecular weight DNA was extracted. Lanes A and F contain DNA from ATH8 cells that were exposed to the virus and not protected by S-dC28. Lanes B and G, C and H, D and I, contain DNA from ATH8 cells pretreated and cultured with 1 micromole, 5 micromoles, and 7 micromoles S-dC28, respectively. Lanes E and J contain DNA from ATH8 cells treated with 50 micromoles 2', 3'-dideoxyadenonsine, and lane K contains DNA from ATH8 cells that was not exposed to the virus.
# [4] = test system: T4, HLA-DR, T8, T3, or Tac antigen on the cell surface of ATH8 cells; assay: Cell surface antigens by fluorescent-activated cytofluorometry; type: cell-based; conditions: 1 micromole (printed i), sixteen hours
# Description: as §2
# [5] = test system: ATH8 cells (printed AT[18); assay: Cell uptake of 35S-phosphorothioate end-labelled oligomer, ATH8 cells; type: in vitro ADME; conditions: within several minutes
# Description: (§3) Phosphatase-resistant 35S-phosphorothioate end-labelled S-dC28 was employed to investigate the permeability of target cells.
# exo- and endonuclease P1 = assay: Nuclease susceptibility, P1 nuclease; type: in vitro ADME
# Description: as §1
# [6] = test system: HIV (HTLV-IIIB) in ATH8 cells; assay: HIV cytopathic effect inhibition (viable ATH8 cells, trypan blue)
# Description: FIGS. 1A-1D and Table 1, The target cells (2×10^5 ATH8 cells) in each tube were pretreated with the stated concentration of each oligomer for 16 hours and then incubated with Polybrene for 45 minutes. After centrifugation, each set of pelleted cells was exposed to HIV (500 virions per cell, which is a much higher dose than the minimal cytopathic dose) and incubated for one hour. Complete media (2 ml RPMI1640) supplemented with L-glutamine (4 mti), 2-mercaptoethanol ([…]), penicillin (50 unit/ml), and streptomycin (50 micrograms/ml), and containing 15% fetal calf serum and IL-2 (15% of conventional IL-2 from Advanced Biotechnologies, Inc., Silver Spring, MD, plus 20 unit/ml of recombinant IL-2 from Amgen Biochemicals, Thousand Oaks, CA) with the various concentrations of oligomers added. The number of viable cells were counted in a hemocytometer using the trypan blue exclusion method for day 7 following exposure to the virus. Filled columns represent non-virus exposed cells, and dotted columns represent virus exposed cells.
# The HIV cytopathic effect inhibition with oligodeoxynucleotides was performed with 18 hours of pretreatment of 2×10^5 target cells (ATH8 cells) with oligos prior to exposure to HTLV-IIIB. After this pretreatment, target cells were treated with Polybrene (2 micrograms/ml) for one hour. The target cells were then, respectively, exposed to HTLV-IIIB virus (generally 500 virions per cell in this series of experiments) for one hour. The 2×10^5 cells were then diluted to 2 ml with complete media containing IL-2 and various concentrations of oligos.
# The number of viable cells was counted in a hemocytometer using the trypan blue exclusion method on day 7 following exposure to the virus. Each set of data were obtained from simultaneously performed experiments so as to make a precise comparison among agents tested.
# The target cells (2×10^5 ATH8 cells per tube) were preincubated with the stated concentrations of S-dC14 for 24 hours and pretreated with 2 micrograms/ml of Polybrene for 45 minutes. After centrifugation, pelleted cells were exposed to the HIV (1000 virions per cell) for one hour. The cells were incubated in 2 ml of complete media containing IL-2, and the viable cells were counted on day 13.
# On day 13 after the exposure to the virus, viable cells were counted by the trypan blue dye exclusion method.
# H9 cells = assay: Cell uptake of 35S-phosphorothioate end-labelled oligomer, H9 cells; type: in vitro ADME; conditions: within several minutes
# Description: as §3
# [7] = test system: HIV p24 gag protein in chronically HIV-infected H9 cells; assay: HIV gag protein expression in chronically HIV-infected H9 cells, indirect immunofluorescence; type: cell-based
# Description: The percentage of cells expressing p24 gag protein of HIV was determined by indirect immunofluorescence microscopy by using anti-HIV p24 murine monoclonal antibody.
# Generally, it has been assumed that anti-sense sequences inhibit the expression of various genes by translation arrest, i.e. that they bind to MRNA and block its translation. In order to test this possibility, gag protein synthesis was analyzed in chronically HIV-infected and -producing H9 cells by indirect immunofluorescent assay under a microscope. […] Alternatively, the level of any translation arrest could have been below the threshold of detection by indirect immunofluorescent assay under a microscope. […] Therefore, one mechanism for the antiviral effect could depend on blocking viral replication perhaps prior to, or at the stage of, pro-viral DNA synthesis.
# HL60 cells [8] = assay: HL60 cell growth (cell count); type: cell-based
# HL60 cells [9] = assay: DNA synthesis (3H-thymidine incorporation) in HL60 cells; type: cell-based; conditions: 50 uM, day 1
# Description: To obtain the results shown in FIG. 4, nonsense or antisense S-ODNs were added at a final concentration of 50 uM on day 0 to cells seeded at 3×10^5/ml. DNA synthesis was determined on day 1 by incubating cells with 1 uCi 3H-thymidine for 4 hours, after which time 10% trichloroacetic acid was added and acid precipitatable radioactivity was trapped on Sihatman glass fiber filters. The filters were subjected to liquid scintillation counting to determine levels of radioactivity.
# [10] = test system: c-myc protein in HL60 cells; assay: c-myc protein reduction; type: cell-based
substance,measurement,setting,value
(dC)n n = 28 [S-dC28],Ratio = t1/2 PSoligo/t1/2 POoligo,endonuclease S1,2
same,"Nuclease susceptibility, t1/2",[1],> 27.7778 h
same,Ratio = t1/2 PSoligo/t1/2 POoligo,[1],> 1400
same,solubility in 1 M NaCl,Solubility,extremely insoluble in 1 M NaCl
same,inhibition of specific binding of labelled virus to T4,[2],No inhibition
same,2.7 Kb env-containing KPN I viral DNA fragment detection,"[3]; 1, 5 and 7 micromoles, lanes B-D, G-I",detected only in lanes A and F
same,inhibition of de novo synthesis of viral DNA,[3]; concentrations as low as / down to 1 micromolar,significantly inhibited the de novo synthesis of viral DNA; also recorded: complete inhibition
same,"changes in T4, HLA-DR, T8, T3, or Tac antigen",[4],no detectable changes
same,uptake (increase of radioactivity),[5],Significant increases of radioactivity
same,Ratio = t1/2 PSoligo/t1/2 POoligo,exo- and endonuclease P1,15
same,protection against the virus / antiviral activity,[6]; 0.5 micromoles,complete protection against the virus; also recorded: complete antiviral activity; also recorded: potent antiHIV activity
same,inhibition of viral replication and protection of ATH8 cells from HIV,"[6]; 3 micromoles, day 7",100%
same,in vitro therapeutic index (ratio of cytotoxic to effective concentration),[6]; compared with dideoxycytidine and dideoxyadenosine,comparable in vitro index to those of dideoxycytidine and dideoxyadenosine
same,anti-HIV activity (cytopathic effect),[6]; in words,most consistent and durable antiviral effects
same,uptake (increase of radioactivity),H9 cells,Significant increases of radioactivity
same,Percentage of gag positive cells,"[7]; 5 micro M, 8 hours in culture",82%
same,Percentage of gag positive cells,"[7]; 5 micro M, 24 hours in culture",91%
same,Percentage of gag positive cells,"[7]; 5 micro M, 72 hours in culture",85%
same,Percentage of gag positive cells,"[7]; 5 micro M, 120 hours in culture",79%
same,Percentage of gag positive cells,"[7]; 10 micro M, 8 hours in culture",74%
same,Percentage of gag positive cells,"[7]; 10 micro M, 24 hours in culture",80%
same,Percentage of gag positive cells,"[7]; 10 micro M, 72 hours in culture",71%
same,Percentage of gag positive cells,"[7]; 10 micro M, 120 hours in culture",82%
same,Percentage of gag positive cells,"[7]; 25 micro M, 8 hours in culture",69%
same,Percentage of gag positive cells,"[7]; 25 micro M, 24 hours in culture",86%
same,Percentage of gag positive cells,"[7]; 25 micro M, 72 hours in culture",75%
same,Percentage of gag positive cells,"[7]; 25 micro M, 120 hours in culture",74%
same,gag protein positivity,"[7]; concentrations as high as 25 micromoles, 120 hours",failed to reduce gag protein positivity; also recorded: did not inhibit gag protein positivity
dAACGTTGAGGGGCAT [S-myc-1],"Nuclease susceptibility, t1/2",endonuclease S1,5.5 min
same,Ratio = t1/2 PSoligo/t1/2 POoligo,endonuclease S1,9
same,concentration relative to that required for the normal oligomer,HL60 cells [8],less than 1%
same,duration of antiproliferative effects,HL60 cells [8],up to three days
same,growth inhibition of HL60 cells at 0.1 micro M,HL60 cells [8]; 0.1 micro M,effective
same,effect on HL60 cell proliferation,HL60 cells [8]; in words,significant inhibition of cell proliferation
same,Ratio = t1/2 PSoligo/t1/2 POoligo,[1],443
same,inhibition of DNA synthesis (3H-thymidine incorporation),HL60 cells [9],significant inhibition
same,Ratio = t1/2 PSoligo/t1/2 POoligo,exo- and endonuclease P1,4
same,reduction of c-myc protein,[10],reduction of c-myc protein
